In patent publication US7517874B2 (priority 2007, dated 2009):

How the values were obtained:
[1] = target: human CB1 receptor (hCB1) (Homo sapiens, UniProt P21554); assay: cell-based; format: cell-based; conditions: for +/− HCB1: agonist or inverse agonist at hCB1
In short: (§1)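 First, cells in IBMX-containing HEPES-buffered HBSS are raised to elevated cAMP with 2-8 μM NKH-477 for 30 min. Data are normalised to the forskolin and forskolin + 1 μM CP55,940 controls.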

[2] = target: T1, rat CB2 receptor (rCB2) (Rattus norvegicus, UniProt Q9QZN9); assay: cell-based; format: cell-based; conditions: for +/− RCB2: agonist or inverse agonist at rCB2
T1 sequence (Q9QZN9 1-360): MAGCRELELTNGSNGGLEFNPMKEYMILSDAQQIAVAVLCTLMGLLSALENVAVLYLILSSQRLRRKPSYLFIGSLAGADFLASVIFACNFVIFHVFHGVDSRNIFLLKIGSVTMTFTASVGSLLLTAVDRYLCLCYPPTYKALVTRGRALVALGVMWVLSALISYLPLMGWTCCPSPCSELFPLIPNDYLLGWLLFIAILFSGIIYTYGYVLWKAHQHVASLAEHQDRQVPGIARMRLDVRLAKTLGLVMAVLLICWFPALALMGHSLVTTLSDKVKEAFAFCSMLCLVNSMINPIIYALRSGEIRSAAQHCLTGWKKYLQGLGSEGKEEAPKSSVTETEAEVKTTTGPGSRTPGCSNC
In short: as §1

human CB1 receptor (hCB1), sequence (P21554 whole entry): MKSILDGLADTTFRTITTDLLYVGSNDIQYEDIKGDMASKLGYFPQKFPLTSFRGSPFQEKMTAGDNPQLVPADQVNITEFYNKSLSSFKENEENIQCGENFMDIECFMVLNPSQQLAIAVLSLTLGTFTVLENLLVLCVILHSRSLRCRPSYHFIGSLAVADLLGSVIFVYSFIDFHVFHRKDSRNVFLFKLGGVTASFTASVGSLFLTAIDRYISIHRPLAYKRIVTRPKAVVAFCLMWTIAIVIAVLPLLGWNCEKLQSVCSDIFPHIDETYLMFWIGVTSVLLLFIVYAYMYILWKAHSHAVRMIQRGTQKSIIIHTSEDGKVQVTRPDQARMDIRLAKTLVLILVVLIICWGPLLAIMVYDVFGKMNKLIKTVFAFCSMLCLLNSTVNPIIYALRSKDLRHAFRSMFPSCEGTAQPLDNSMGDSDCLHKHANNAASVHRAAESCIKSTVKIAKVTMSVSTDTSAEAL

| Structure (SMILES) | +/− HCB1 [1] | +/− RCB2 [2] | EC50 [1] [µM] | EC50 [2] [µM] |
| --- | --- | --- | --- | --- |
| CNC(=O)[C@H](CC(C)(C)C)NC(=O)c1nc(-c2ccc(F)cc2)n2c1CN(C)CCC2 [Compound 547, (S)-N-(4,4-dimethyl-1-(methylamino)-1-oxopentan-2-yl)-3-(4-fluorophenyl)-8-methyl-6,7,8,9-tetrahydro-5H-imidazo[1,5-a][1,4]diazepine-1-carboxamide] | + | + |  |  |
| CNC(=O)[C@H](CC(C)(C)C)NC(=O)c1nc(-c2cccc(F)c2)n2c1CN(C)CCC2 [Compound 548, (S)-N-(4,4-dimethyl-1-(methylamino)-1-oxopentan-2-yl)-3-(3-fluorophenyl)-8-methyl-6,7,8,9-tetrahydro-5H-imidazo[1,5-a][1,4]diazepine-1-carboxamide] | + | + |  |  |
| CNC(=O)[C@H](CC(C)(C)C)NC(=O)c1nc(-c2ccc(F)cc2F)n2c1CN(C)CCC2 [Compound 549, (S)-3-(2,4-difluorophenyl)-N-(4,4-dimethyl-1-(methylamino)-1-oxopentan-2-yl)-8-methyl-6,7,8,9-tetrahydro-5H-imidazo[1,5-a][1,4]diazepine-1-carboxamide] |  |  | > 10 | > 10 |
| CNC(=O)[C@H](CC(C)(C)C)NC(=O)c1nc(-c2ccc(Cl)c(F)c2)n2c1CN(C)CCC2 [Compound 550, (S)-3-(4-chloro-3-fluorophenyl)-N-(4,4-dimethyl-1-(methylamino)-1-oxopentan-2-yl)-8-methyl-6,7,8,9-tetrahydro-5H-imidazo[1,5-a][1,4]diazepine-1-carboxamide] |  | − | > 10 |  |
| CNC(=O)[C@H](CC(C)(C)C)NC(=O)c1nc(-c2ccc(C(F)(F)F)cc2F)n2c1CN(C)CCC2 [Compound 551, (S)-N-(4,4-dimethyl-1-(methylamino)-1-oxopentan-2-yl)-3-(2-fluoro-4-(trifluoromethyl)phenyl)-8-methyl-6,7,8,9-tetrahydro-5H-imidazo[1,5-a][1,4]diazepine-1-carboxamide] | + | + |  |  |
| CNC(=O)[C@H](CC(C)(C)C)NC(=O)c1nc(-c2ccc(F)c(F)c2)n2c1CN(C)CCC2 [Compound 552, (S)-3-(3,4-diflurophenyl)-N-(4,4-dimethyl-1-(methylamino)-1-oxopentan-2-yl)-8-methyl-6,7,8,9-tetrahydro-5H-imidazo[1,5-a][1,4]diazepine-1-carboxamide] | + | + |  |  |
| CNC(=O)[C@H](CC(C)(C)C)NC(=O)c1nc(-c2cc(F)ccc2F)n2c1CN(C)CCC2 [Compound 553, (S)-3-(2,5-difluorophenyl)-N-(4,4-dimethyl-1-(methylamino)-1-oxopentan-2-yl)-8-methyl-6,7,8,9-tetrahydro-5H-imidazo[1,5-a][1,4]diazepine-1-carboxamide] |  |  | > 10 | > 10 |
| CNC(=O)[C@H](CC(C)(C)C)NC(=O)c1nc(-c2cc(Cl)c(F)cc2F)n2c1CN(C)CCC2 [Compound 554, (S)-3-(5-chloro-2,4-difluorophenyl)-N-(4,4-dimethyl-1-(methylamino)-1-oxopentan-2-yl)-8-methyl-6,7,8,9-tetrahydro-5H-imidazo[1,5-a][1,4]diazepine-1-carboxamide] | + | + |  |  |
| CNC(=O)[C@H](CC(C)(C)C)NC(=O)c1nc(-c2cc(F)c(F)cc2F)n2c1CN(C)CCC2 [Compound 555, (S)-N-(4,4-dimethyl-1-(methylamino)-1-oxopentan-2-yl)-8-methyl-3-(2,4,5-trifluorophenyl)-6,7,8,9-tetrahydro-5H-imidazo[1,5-a][1,4]diazepine-1-carboxamide] | + | + |  |  |
| CN1CCCn2c(-c3ccc(Cl)cc3F)nc(C(=O)N[C@H](C(=O)N(C)C)C(C)(C)C)c2C1 [Compound 556, (S)-3-(4-chloro-2-fluorophenyl)-N-(1-(dimethylamino)-3,3-dimethyl-1-oxobutan-2-yl)-8-methyl-6,7,8,9-tetrahydro-5H-imidazo[1,5-a][1,4]diazepine-1-carboxamide] | + |  |  | > 10 |
| CN1CCCn2c(-c3ccccc3)nc(C(=O)N[C@H](C(=O)N(C)C)C(C)(C)C)c2C1 [Compound 557, (S)-N-(1-(dimethylamino)-3,3-dimethyl-1-oxobutan-2-yl)-8-methyl-3-phenyl-6,7,8,9-tetrahydro-5H-imidazo[1,5-a][1,4]diazepine-1-carboxamide] |  | + | > 10 |  |
| CN1CCCn2c(-c3ccc(F)c(Cl)c3)nc(C(=O)N[C@H](C(=O)N(C)C)C(C)(C)C)c2C1 [Compound 558, (S)-3-(3-chloro-4-fluorophenyl)-N-(1-(dimethylamino)-3,3-dimethyl-1-oxobutan-2-yl)-8-methyl-6,7,8,9-tetrahydro-5H-imidazo[1,5-a][1,4]diazepine-1-carboxamide] | + | + |  |  |
| CN1CCCn2c(-c3cc(Cl)ccc3F)nc(C(=O)N[C@H](C(=O)N(C)C)C(C)(C)C)c2C1 [Compound 559, (S)-3-(5-chloro-2-fluorophenyl)-N-(1-(dimethylamino)-3,3-dimethyl-1-oxobutan-2-yl)-8-methyl-6,7,8,9-tetrahydro-5H-imidazo[1,5-a][1,4]diazepine-1-carboxamide] | + |  |  | > 10 |
| CN1CCCn2c(-c3ccc(Cl)c(F)c3)nc(C(=O)N[C@H](C(=O)N(C)C)C(C)(C)C)c2C1 [Compound 560, (S)-3-(4-chloro-3-fluorophenyl)-N-(1-(dimethylamino)-3,3-dimethyl-1-oxobutan-2-yl)-8-methyl-6,7,8,9-tetrahydro-5H-imidazo[1,5-a][1,4]diazepine-1-carboxamide] | + | + |  |  |
| CN1CCCn2c(-c3ccc(F)c(F)c3)nc(C(=O)N[C@H](C(=O)N(C)C)C(C)(C)C)c2C1 [Compound 561, (S)-3-(3,4-difluorophenyl)-N-(1-(dimethylamino)-3,3-dimethyl-1-oxobutan-2-yl)-8-methyl-6,7,8,9-tetrahydro-5H-imidazo[1,5-a][1,4]diazepine-1-carboxamide] | + | + |  |  |
| CN1CCCn2c(-c3cc(F)ccc3F)nc(C(=O)N[C@H](C(=O)N(C)C)C(C)(C)C)c2C1 [Compound 562, (S)-3-(2,5-difluorophenyl)-N-(1-(dimethylamino)-3,3-dimethyl-1-oxobutan-2-yl)-8-methyl-6,7,8,9-tetrahydro-5H-imidazo[1,5-a][1,4]diazepine-1-carboxamide] |  | − | > 10 |  |
| CN1CCCn2c(-c3ccc(F)cc3F)nc(C(=O)N[C@H](C(=O)N(C)C)C(C)(C)C)c2C1 [Compound 563, (S)-3-(2,4-difluorophenyl)-N-(1-(dimethylamino)-3,3-dimethyl-1-oxobutan-2-yl)-8-methyl-6,7,8,9-tetrahydro-5H-imidazo[1,5-a][1,4]diazepine-1-carboxamide] | + | + |  |  |
| CC(C)C[C@H](NC(=O)c1nc(-c2ccc(Cl)cc2F)n2c1CN(C)CCC2)C(N)=O [Compound 564, (S)-N-(1-amino-4-methyl-1-oxopentan-2-yl)-3-(4-chloro-2-fluorophenyl)-8-methyl-6,7,8,9-tetrahydro-5H-imidazo[1,5-a][1,4]diazepine-1-carboxamide] | + | + |  |  |
| CC(C)C[C@H](NC(=O)c1nc(-c2ccc(F)cc2)n2c1CN(C)CCC2)C(N)=O [Compound 565, (S)-N-(1-amino-4-methyl-1-oxopentan-2-yl)-3-(4-fluorophenyl)-8-methyl-6,7,8,9-tetrahydro-5H-imidazo[1,5-a][1,4]diazepine-1-carboxamide] |  | + | > 10 |  |
| CC(C)C[C@H](NC(=O)c1nc(-c2cccc(F)c2)n2c1CN(C)CCC2)C(N)=O [Compound 566, (S)-N-(1-amino-4-methyl-1-oxopentan-2-yl)-3-(3-fluorophenyl)-8-methyl-6,7,8,9-tetrahydro-5H-imidazo[1,5-a][1,4]diazepine-1-carboxamide] |  | + | > 10 |  |
| CC(C)C[C@H](NC(=O)c1nc(-c2cc(F)ccc2F)n2c1CN(C)CCC2)C(N)=O [Compound 567, (S)-N-(1-amino-4-methyl-1-oxopentan-2-yl)-3-(2,5-difluorophenyl)-8-methyl-6,7,8,9-tetrahydro-5H-imidazo[1,5-a][1,4]diazepine-1-carboxamide] |  | + | > 10 |  |
| CC(C)C[C@H](NC(=O)c1nc(-c2ccc(F)cc2F)n2c1CN(C)CCC2)C(N)=O [Compound 568, (S)-N-(1-amino-4-methyl-1-oxopentan-2-yl)-3-(2,4-difluorophenyl)-8-methyl-6,7,8,9-tetrahydro-5H-imidazo[1,5-a][1,4]diazepine-1-carboxamide] | + | + |  |  |
